# Values of other authors, collected in paper PMC13151045, “Accounting for Differences in Plasma Protein Binding between Fish and Humans for Supporting Environmental Risk Assessment of Pharmaceuticals Using the Fish Plasma Model” (Environmental Science & Technology, 2026).
# Details: minimum reported human therapeutic plasma concentration; ref footnote e of Table 4
row,SMILES,Human C max
1,CC1Cc2ccccc2N1NC(=O)c1ccc(Cl)c(S(N)(=O)=O)c1 (centres unmarked) [Indapamide],55.8 ng/mL
2,CC(C)NCC(O)COc1cccc2ccccc12 (centres unmarked) [Propranolol],20 ng/mL
